The term IC50 denotes the point on the concentration scale where inhibition reaches its midpoint. A high value points to a need for much substance.

This note sets out measurements from patent publication US12509447B2, “Small molecule compound” (Technoderma Medicines Pte Ltd, priority 2019, dated 2025).

SMILES strings stand for the structures.

Common to all, as to type: biochemical
One assay concerns the target Tyk2 (Homo sapiens, UniProt P29597). Description: Inhibition of JAK kinase activity, EZ Reader microfluidic phosphorylation of peptide substrate: Tyk2. As to conditions: Tyk2 kinase 1 nM; highest final concentration 10 μM, 1:3 serial dilution, 8 points, duplicates. An outline of the steps:
(§1)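 Microfluidic mobility-shift assay reading fluorescent peptide substrate and product; kinases at 20 nM (JAK1) or 1 nM (JAK2, JAK3, Tyk2) in pH 7.4 HEPES with 10 mM MgCl2, run at room temperature to 20-30% conversion, then stopped with EDTA. Compounds tested from 10 μM top, 1:3 over 8 points in duplicate; IC50 fitted from % conversion.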

A further assay addresses JAK1 (Homo sapiens, UniProt P23458). Description: Inhibition of JAK kinase activity, EZ Reader microfluidic phosphorylation of peptide substrate: JAK1. Conditions: JAK1 kinase 20 nM; highest final concentration 10 μM, 1:3 serial dilution, 8 points, duplicates. An outline of the steps:
as §1

The target in a further assay is JAK2 (Homo sapiens, UniProt O60674). Kind of assay: Inhibition of JAK kinase activity, EZ Reader microfluidic phosphorylation of peptide substrate: JAK2. As to conditions: JAK2 kinase 1 nM; highest final concentration 10 μM, 1:3 serial dilution, 8 points, duplicates. An outline of the steps: as §1
Sequence of JAK2 (O60674 whole entry): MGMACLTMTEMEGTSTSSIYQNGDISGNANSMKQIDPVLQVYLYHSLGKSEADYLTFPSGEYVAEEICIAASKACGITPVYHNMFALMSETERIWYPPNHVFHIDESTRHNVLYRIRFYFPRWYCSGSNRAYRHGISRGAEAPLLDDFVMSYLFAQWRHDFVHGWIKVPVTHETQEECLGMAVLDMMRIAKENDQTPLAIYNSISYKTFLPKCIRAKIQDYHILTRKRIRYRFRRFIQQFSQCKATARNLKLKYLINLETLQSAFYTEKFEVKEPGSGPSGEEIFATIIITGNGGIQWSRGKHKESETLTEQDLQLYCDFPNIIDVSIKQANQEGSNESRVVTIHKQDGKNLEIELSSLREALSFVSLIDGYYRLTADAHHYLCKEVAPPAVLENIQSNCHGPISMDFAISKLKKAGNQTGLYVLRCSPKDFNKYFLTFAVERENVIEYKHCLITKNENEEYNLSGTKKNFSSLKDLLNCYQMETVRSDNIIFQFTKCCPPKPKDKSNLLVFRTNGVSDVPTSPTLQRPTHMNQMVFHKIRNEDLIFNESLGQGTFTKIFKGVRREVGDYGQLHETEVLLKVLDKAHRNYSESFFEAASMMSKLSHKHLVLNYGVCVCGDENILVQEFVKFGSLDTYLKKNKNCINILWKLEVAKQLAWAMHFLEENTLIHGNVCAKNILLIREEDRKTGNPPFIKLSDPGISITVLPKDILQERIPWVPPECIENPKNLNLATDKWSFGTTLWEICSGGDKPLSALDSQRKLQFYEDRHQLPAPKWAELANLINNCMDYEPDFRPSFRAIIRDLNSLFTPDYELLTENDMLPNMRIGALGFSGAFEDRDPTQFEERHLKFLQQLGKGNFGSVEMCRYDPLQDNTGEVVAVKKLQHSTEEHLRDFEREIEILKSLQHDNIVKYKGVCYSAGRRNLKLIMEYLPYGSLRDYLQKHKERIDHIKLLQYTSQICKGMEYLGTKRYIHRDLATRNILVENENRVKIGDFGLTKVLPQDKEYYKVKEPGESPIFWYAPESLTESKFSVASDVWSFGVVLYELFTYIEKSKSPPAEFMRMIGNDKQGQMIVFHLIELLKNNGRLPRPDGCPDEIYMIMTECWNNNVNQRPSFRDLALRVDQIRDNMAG
For the next assay, the target named is T1, JAK3 (Homo sapiens, UniProt P52333).
T1 sequence (P52333 1-1124): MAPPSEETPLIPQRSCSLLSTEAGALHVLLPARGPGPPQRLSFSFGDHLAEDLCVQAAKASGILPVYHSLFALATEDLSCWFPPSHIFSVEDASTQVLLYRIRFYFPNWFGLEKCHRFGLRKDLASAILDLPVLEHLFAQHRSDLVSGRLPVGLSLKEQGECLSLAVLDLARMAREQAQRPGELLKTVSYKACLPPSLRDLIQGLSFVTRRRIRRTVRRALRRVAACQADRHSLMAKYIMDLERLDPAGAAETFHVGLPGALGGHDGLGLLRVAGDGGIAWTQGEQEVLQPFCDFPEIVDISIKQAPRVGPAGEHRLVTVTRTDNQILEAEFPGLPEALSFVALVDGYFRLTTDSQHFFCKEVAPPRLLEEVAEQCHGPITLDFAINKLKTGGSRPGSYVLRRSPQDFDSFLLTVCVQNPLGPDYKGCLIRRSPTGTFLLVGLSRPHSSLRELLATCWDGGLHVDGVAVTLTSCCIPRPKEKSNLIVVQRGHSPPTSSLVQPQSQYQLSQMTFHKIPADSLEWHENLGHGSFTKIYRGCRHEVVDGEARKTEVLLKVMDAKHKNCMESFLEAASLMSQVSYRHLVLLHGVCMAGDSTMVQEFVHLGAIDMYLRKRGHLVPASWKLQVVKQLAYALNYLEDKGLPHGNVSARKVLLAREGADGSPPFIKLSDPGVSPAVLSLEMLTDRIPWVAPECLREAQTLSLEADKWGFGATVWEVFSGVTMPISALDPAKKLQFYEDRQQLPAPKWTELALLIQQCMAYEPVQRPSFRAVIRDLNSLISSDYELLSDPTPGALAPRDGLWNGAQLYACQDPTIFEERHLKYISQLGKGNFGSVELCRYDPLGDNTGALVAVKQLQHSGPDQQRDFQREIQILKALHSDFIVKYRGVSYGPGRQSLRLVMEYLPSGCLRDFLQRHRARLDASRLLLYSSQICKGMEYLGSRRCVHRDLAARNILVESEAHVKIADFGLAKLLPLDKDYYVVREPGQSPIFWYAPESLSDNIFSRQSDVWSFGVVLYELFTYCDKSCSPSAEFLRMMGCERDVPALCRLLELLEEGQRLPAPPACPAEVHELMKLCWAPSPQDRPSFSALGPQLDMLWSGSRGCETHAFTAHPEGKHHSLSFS
Description: Inhibition of JAK kinase activity, EZ Reader microfluidic phosphorylation of peptide substrate: JAK3. Conditions: JAK3 kinase 1 nM; highest final concentration 10 μM, 1:3 serial dilution, 8 points, duplicates. The method in brief: as §1

Sequence of JAK1 (P23458 whole entry): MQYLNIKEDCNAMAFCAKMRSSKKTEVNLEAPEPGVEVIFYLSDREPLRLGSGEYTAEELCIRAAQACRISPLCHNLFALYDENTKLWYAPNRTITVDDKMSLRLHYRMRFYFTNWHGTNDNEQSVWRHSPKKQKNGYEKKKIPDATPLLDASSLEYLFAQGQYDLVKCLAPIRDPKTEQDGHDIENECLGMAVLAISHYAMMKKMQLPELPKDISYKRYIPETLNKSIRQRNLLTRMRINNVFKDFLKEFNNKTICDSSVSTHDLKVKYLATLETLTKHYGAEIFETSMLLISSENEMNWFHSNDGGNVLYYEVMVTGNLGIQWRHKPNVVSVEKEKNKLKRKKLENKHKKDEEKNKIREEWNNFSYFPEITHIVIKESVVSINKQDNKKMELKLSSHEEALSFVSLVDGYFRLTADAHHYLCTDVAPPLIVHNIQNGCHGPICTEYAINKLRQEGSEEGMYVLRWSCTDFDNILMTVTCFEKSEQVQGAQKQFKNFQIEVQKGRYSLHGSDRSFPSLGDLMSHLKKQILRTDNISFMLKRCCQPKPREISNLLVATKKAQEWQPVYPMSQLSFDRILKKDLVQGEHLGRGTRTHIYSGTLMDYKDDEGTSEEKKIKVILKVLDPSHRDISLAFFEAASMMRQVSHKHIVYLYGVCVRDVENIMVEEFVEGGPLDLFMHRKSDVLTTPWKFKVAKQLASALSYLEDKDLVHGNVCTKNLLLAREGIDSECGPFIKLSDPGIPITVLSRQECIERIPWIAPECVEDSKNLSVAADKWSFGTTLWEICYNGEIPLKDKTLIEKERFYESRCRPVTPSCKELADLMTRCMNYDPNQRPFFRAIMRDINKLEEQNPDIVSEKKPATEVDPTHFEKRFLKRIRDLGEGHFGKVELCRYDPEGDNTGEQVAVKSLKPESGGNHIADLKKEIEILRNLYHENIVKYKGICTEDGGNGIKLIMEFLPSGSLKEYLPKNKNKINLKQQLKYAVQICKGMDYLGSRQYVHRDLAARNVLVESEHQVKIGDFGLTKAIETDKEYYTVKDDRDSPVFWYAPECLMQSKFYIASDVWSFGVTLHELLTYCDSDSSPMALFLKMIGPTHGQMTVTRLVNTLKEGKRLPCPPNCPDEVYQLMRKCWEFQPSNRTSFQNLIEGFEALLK
Sequence of Tyk2 (P29597 whole entry): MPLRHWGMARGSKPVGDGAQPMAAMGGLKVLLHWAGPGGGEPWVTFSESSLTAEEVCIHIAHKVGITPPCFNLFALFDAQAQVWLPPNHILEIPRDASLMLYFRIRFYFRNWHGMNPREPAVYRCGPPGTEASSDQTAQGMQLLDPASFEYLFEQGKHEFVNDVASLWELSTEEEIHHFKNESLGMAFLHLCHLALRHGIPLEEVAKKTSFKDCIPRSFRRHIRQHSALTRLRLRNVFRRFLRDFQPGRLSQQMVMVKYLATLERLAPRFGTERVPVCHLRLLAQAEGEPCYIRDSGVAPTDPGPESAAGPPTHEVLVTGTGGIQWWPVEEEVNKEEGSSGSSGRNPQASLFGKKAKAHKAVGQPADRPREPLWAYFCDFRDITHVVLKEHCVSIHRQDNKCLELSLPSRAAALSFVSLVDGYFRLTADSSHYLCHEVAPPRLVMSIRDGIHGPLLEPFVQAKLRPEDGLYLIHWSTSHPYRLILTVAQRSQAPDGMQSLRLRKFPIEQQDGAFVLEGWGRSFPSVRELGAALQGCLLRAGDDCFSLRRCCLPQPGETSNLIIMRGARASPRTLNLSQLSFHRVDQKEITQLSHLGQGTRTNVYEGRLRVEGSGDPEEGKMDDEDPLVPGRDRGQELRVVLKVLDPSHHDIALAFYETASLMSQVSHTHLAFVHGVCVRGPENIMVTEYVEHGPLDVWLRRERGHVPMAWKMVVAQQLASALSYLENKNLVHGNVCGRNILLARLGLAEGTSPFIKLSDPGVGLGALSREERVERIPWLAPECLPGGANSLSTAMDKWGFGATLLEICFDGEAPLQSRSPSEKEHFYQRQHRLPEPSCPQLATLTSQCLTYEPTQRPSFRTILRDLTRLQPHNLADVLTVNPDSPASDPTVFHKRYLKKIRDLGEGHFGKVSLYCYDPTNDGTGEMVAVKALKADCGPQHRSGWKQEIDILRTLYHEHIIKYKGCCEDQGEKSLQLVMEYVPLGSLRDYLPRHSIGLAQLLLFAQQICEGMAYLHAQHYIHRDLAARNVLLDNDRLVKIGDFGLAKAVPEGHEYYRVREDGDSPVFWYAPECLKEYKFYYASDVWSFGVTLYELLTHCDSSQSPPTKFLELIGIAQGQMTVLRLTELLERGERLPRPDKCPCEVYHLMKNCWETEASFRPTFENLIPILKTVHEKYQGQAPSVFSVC

Regarding `CCCC(=O)N1CCC(n2cc(-c3ccnc(Nc4cnn(C)c4)n3)cn2)CC1` [TDM-180677, 1-(4-(4-(2-((1-methyl-1H-pyrazol-4-yl)amino)pyrimidin-4-yl)-1H-pyrazol-1-yl)piperidin-1-yl)butan-1-one], the IC50 on Tyk2, at JAK1, against JAK2 and against JAK3 was no less than 10 µM in each case.

In the case of `Cn1cc(Nc2nccc(-c3cnn(C4CCN(C(=O)CC(F)(F)F)CC4)c3)n2)cn1` [TDM-180678, 3,3,3-trifluoro-1-(4-(4-(2-((1-methyl-1H-pyrazol-4-yl)amino)pyrimidin-4-yl)-1H-pyrazol-1-yl)piperidin-1-yl)propan-1-one], the IC50 against Tyk2, at JAK1, at JAK2 and on JAK3 was no less than 10 µM throughout.

Turning to `Cn1cc(Nc2nccc(-c3cnn(C4CCN(C(=O)C5CC5(F)F)CC4)c3)n2)cn1` (centres unmarked) [TDM-180679, (2,2-difluorocyclopropyl)(4-(4-(2-((1-methyl-1H-pyrazol-4-yl)amino)pyrimidin-4-yl)-1H-pyrazol-1-yl)piperidin-1-yl)ketone], the IC50 on Tyk2, against JAK1, against JAK2 and on JAK3 was no less than 10 µM each time.

With `Cn1cc(Nc2nccc(-c3cnn(C4CCN(C(=O)CC#N)CC4)c3)n2)cn1` [TDM-180680, 3-(4-(4-(2-((1-methyl-1H-pyrazol-4-yl)amino)pyrimidin-4-yl)-1H-pyrazol-1-yl)piperidin-1-yl)3-oxopropanenitrile], the IC50 against Tyk2, at JAK1, against JAK2 and against JAK3 was no less than 10 µM each time.

For `Cn1cc(Nc2nccc(-c3cnn(C4CCN(C(=O)CO)CC4)c3)n2)cn1` [TDM-180681, 2-hydroxy-1-(4-(4-(2-((1-methyl-1H-pyrazol-4-yl)amino)pyrimidin-4-yl)-1H-pyrazol-1-yl)piperidin-1-yl)ethanone], the IC50 against Tyk2, on JAK1, against JAK2 and on JAK3 was no less than 10 µM in each case.

Consider `Cn1cc(Nc2nccc(-c3cnn(C4(CC#N)CN(C(=O)C5CC5(F)F)C4)c3)n2)cn1` (centres unmarked) [TDM-180726, 2-(1-(2,2-difluorocyclo-1-carbonyl)-3-(4-(2-((1-methyl-1H-pyrazol-4-yl)amino)pyrimidin-4-yl)-1H-pyrazol-1-yl)azetidin-3-yl)acetonitrile], for which the IC50 was 0.1 to 1 µM at Tyk2, 0.1 to 1 µM at JAK1, 0.1 to 1 µM against JAK2 and 1 to 10 µM against JAK3.

On to `Cn1cc(Nc2nccc(-c3cnn(C4(CC#N)CN(C(=O)CC#N)C4)c3)n2)cn1` [TDM-180727, 3-(3-(cyanomethyl)-3-(4-(2-((1-methyl-1H-pyrazol-4-yl)amino)pyrimidin-4-yl)-1H-pyrazol-1-yl)azetidinpiperazin-1-yl)-3-oxypropionitrile], for which the IC50 against Tyk2 was 0.1 to 1 µM; against JAK1 it was 0.1 to 1 µM; on JAK2 it was 1 to 10 µM; against JAK3, no less than 10 µM.

For `CCS(=O)(=O)N1CC(CC#N)(n2cc(-c3ccnc(Nc4cnn(C)c4)n3)cn2)C1` [TDM-180728, 2-(1-(ethylsulfonyl)-3-(4-(2-((1-methyl-1H-pyrazol-4-yl)amino)pyrimidin-4-yl)-1H-pyrazol-1-yl)azetidinpyridin-3-yl)acetonitrile], the IC50 was 0.1 to 1 µM at Tyk2, 0.1 to 1 µM against JAK1, less than 0.1 µM against JAK2 and 1 to 10 µM at JAK3.

Turning to `Cn1cc(Nc2nccc(-c3cnn(C4(CC#N)CN(C(=O)CC(F)(F)F)C4)c3)n2)cn1` [TDM-180752, 2-(3-(4-(2-((1-methyl-1H-pyrazol-4-yl)amino)pyrimidin-4-yl)-1H-pyrazol-1-yl)-1-(3,3,3-trifluoropropionyl)azetidin-3-yl)acetonitrile], the IC50 against Tyk2 lay within 0.1 to 1 µM; against JAK1, 0.1 to 1 µM; against JAK2, 0.1 to 1 µM; against JAK3, 1 to 10 µM.

Regarding `Cn1cc(Nc2nccc(-c3cnn(C4(CC#N)CN(C(=O)C5CC5)C4)c3)n2)cn1` [TDM-180753, 2-(1-(cyclopropanecarbonyl)-3-(4-(2-((1-methyl-1H-pyrazol-4-yl)amino)pyrimidin-4-yl)-1H-pyrazol-1-yl)azetidinpyridin-3-yl)acetonitrile], the IC50 at Tyk2 is 0.1 to 1 µM; against JAK1 it was 0.1 to 1 µM; against JAK2 it was 1 to 10 µM; against JAK3, no less than 10 µM.

Regarding `Cn1cc(Nc2nccc(-c3cnn(C4(CC#N)CN(S(=O)(=O)C5CC5)C4)c3)n2)cn1` [TDM-180766, 2-(1-(cyclopropylsulfonyl)-3-(4-(2-((1-methyl-1H-pyrazol-4-yl)amino)pyrimidin-4-yl)-1H-pyrazol-1-yl)azetidinpyridin-3-yl)acetonitrile], the IC50 on Tyk2 was less than 0.1 µM; on JAK1, 0.1 to 1 µM; at JAK2, less than 0.1 µM; on JAK3, 1 to 10 µM.

`Cn1cc(Nc2nccc(-c3ccn(C4(CC#N)CN(S(=O)(=O)C5CC5)C4)c3)n2)cn1` [TDM-180770, 2-(1-(cyclopropylsulfonyl)-3-(3-(2-((1-methyl-1H-pyrazol-4-yl)amino)pyrimidin-4-yl)-1H-pyrrol-1-yl)azetidinpyridin-3-yl)acetonitrile]: the IC50 against Tyk2 was less than 0.1 µM; on JAK1, 0.1 to 1 µM; on JAK2, 0.1 to 1 µM; on JAK3, 1 to 10 µM.

In the case of `CCS(=O)(=O)N1CC(CC#N)(n2ccc(-c3ccnc(Nc4cnn(C)c4)n3)c2)C1` [TDM-180771, 2-(1-(ethylsulfonyl)-3-(3-(2-((1-methyl-1H-pyrazol-4-yl)amino)pyrimidin-4-yl)-1H-pyrrol-1-yl)azetidinpyridin-3-yl)acetonitrile], the half-inhibitory concentration (IC50) against Tyk2 is less than 0.1 µM; at JAK1, 0.1 to 1 µM; against JAK2, less than 0.1 µM; at JAK3, 1 to 10 µM.

Consider `Cn1cc(Nc2nccc(-c3ccn(C4(CC#N)CN(C(=O)C5CC5)C4)c3)n2)cn1` [TDM-180772, 2-(1-(cyclopropanecarbonyl)-3-(3-(2-((1-methyl-1H-pyrazol-4-yl)amino)pyrimidin-4-yl)-1H-pyrrol-1-yl)azetidinpyridin-3-yl)acetonitrile], for which the IC50 against Tyk2 is 0.1 to 1 µM; on JAK1, 0.1 to 1 µM; against JAK2, 0.1 to 1 µM; against JAK3 it was no less than 10 µM.

Turning to `Cn1cc(Nc2nccc(-c3ccn(C4(CC#N)CN(C(=O)CC#N)C4)c3)n2)cn1` [TDM-180775, 3-(3-(cyanomethyl)-3-(3-(2-((1-methyl-1H-pyrazol-4-yl)amino)pyrimidin-4-yl)-1H-pyrrol-1-yl)azetidinpiperazin-1-yl)-3-oxypropionitrile], the IC50 against Tyk2 was 0.1 to 1 µM; against JAK1, 0.1 to 1 µM; at JAK2 it was 0.1 to 1 µM; against JAK3, no less than 10 µM.

As for `Cn1cc(Nc2nccc(-c3ccn(C4(CC#N)CN(C(=O)C5CC5(F)F)C4)c3)n2)cn1` (centres unmarked) [TDM-180776, 2-(1-(2,2-difluorocyclo-1-carbonyl)-3-(3-(2-((1-methyl-1H-pyrazol-4-yl)amino)pyrimidin-4-yl)-1H-pyrrol-1-yl)azetidin-3-yl)acetonitrile], the IC50 was less than 0.1 µM against Tyk2, less than 0.1 µM against JAK1, less than 0.1 µM against JAK2 and 1 to 10 µM against JAK3.

Turning to `Cn1cc(Nc2nccc(-c3ccn(C4(CC#N)CN(C(=O)CC(F)(F)F)C4)c3)n2)cn1` [TDM-180778], the IC50 was less than 0.1 µM against Tyk2, less than 0.1 µM against JAK1, 0.1 to 1 µM on JAK2 and 1 to 10 µM against JAK3.
